From ChEMBL document CHEMBL5154751, “Intramolecular Interactions Enhance the Potency of Gallinamide A Analogues against Trypanosoma cruzi” (J Med Chem, 2022)

test system: Trypanosoma cruzi; assay: Antitrypanosomal activity against amastigotes form of Trypanosoma cruzi CA-I/72 infected in mouse C2C12 cells assessed as parasite infection level by DAPI staining based microscopic analysis; type: functional, organism-based; settings: CA-I/72, C2C12

| Compound | EC50 |
| --- | --- |
| O=C(Cn1ccnc1[N+](=O)[O-])NCc1ccccc1 [BENZNIDAZOLE] | 1910 nM |
| COC1=CC(=O)N(C(=O)/C=C/[C@@H](CCc2ccccc2)NC(=O)[C@H](CC(C)C)NC(=O)[C@H](CC(C)C)NC(=O)[C@H](C(C)C)N(C)C)C1Cc1ccc(-c2ccc(C#N)cc2)cc1 (some centres undefined) | 19 nM |
| COC1=CC(=O)N(C(=O)/C=C/[C@H](CCc2ccccc2)NC(=O)[C@H](CC(C)C)NC(=O)[C@H](CC(C)C)NC(=O)C2CCN(C)CC2)C1Cc1ccc(-c2ccc(OC)cc2)cc1 (some centres undefined) | 261 nM |
| COC1=CC(=O)N(C(=O)/C=C/[C@H](CCc2ccccc2)NC(=O)[C@H](CC(C)C)NC(=O)[C@H](CC(C)C)NC(=O)C2CCN(C)CC2)C1Cc1ccc(-c2ccc(C#N)cc2)cc1 (some centres undefined) | 423 nM |
| COC1=CC(=O)N(C(=O)/C=C/[C@H](CCc2ccccc2)NC(=O)[C@H](CC(C)C)NC(=O)[C@H](CC(C)C)NC(=O)C2CCN(C)CC2)C1Cc1ccc(-c2ccc3ccccc3c2)cc1 (some centres undefined) | 521 nM |
| COC1=CC(=O)N(C(=O)/C=C/[C@@H](CCc2ccccc2)NC(=O)[C@H](CC(C)C)NC(=O)[C@H](CC(C)C)NC(=O)[C@H](C(C)C)N(C)C)C1Cc1ccc(-c2ccccc2)cc1 (some centres undefined) | 13 nM |
| COC1=CC(=O)N(C(=O)/C=C/[C@@H](CCc2ccccc2)NC(=O)[C@H](CC(C)C)NC(=O)[C@H](CC(C)C)NC(=O)[C@H](C(C)C)N(C)C)C1Cc1ccc(-c2ccc(OC)cc2)cc1 (some centres undefined) | 19 nM |
| COC1=CC(=O)N(C(=O)/C=C/[C@H](CCc2ccccc2)NC(=O)[C@H](CC(C)C)NC(=O)[C@H](CC(C)C)NC(=O)C2CCN(C)CC2)C1Cc1ccc(-c2ccccc2)cc1 (some centres undefined) | 222 nM |
| COC1=CC(=O)N(C(=O)/C=C/[C@H](CCc2ccccc2)NC(=O)[C@H](CC(C)C)NC(=O)[C@H](CC(C)C)NC(=O)C2CCN(C)CC2)C1Cc1ccc(-c2ccc(C(F)(F)F)cc2)cc1 (some centres undefined) | 420 nM |
| COC1=CC(=O)N(C(=O)/C=C/[C@@H](CCc2ccccc2)NC(=O)[C@H](CC(C)C)NC(=O)[C@H](CC(C)C)NC(=O)[C@H](C(C)C)N(C)C)C1Cc1ccc(-c2ccc(C(F)(F)F)cc2)cc1 (some centres undefined) | 78 nM |
| COC1=CC(=O)N(C(=O)/C=C/[C@@H](CCc2ccccc2)NC(=O)[C@H](CC(C)C)NC(=O)[C@H](CC(C)C)NC(=O)[C@H](C(C)C)N(C)C)C1Cc1ccc(-c2ccc3ccccc3c2)cc1 (some centres undefined) | 59 nM |

test system: not listed separately; assay: Cytotoxicity against mouse C2C12 cells assessed as lethal dose; type: toxicity, cell-based; settings: read-out: LD50 (the source's name)

| Compound | CC50 |
| --- | --- |
| O=C(Cn1ccnc1[N+](=O)[O-])NCc1ccccc1 [BENZNIDAZOLE] | > 600 nM |
| COC1=CC(=O)N(C(=O)/C=C/[C@H](C)NC(=O)[C@H](CC(C)C)NC(=O)[C@H](CC(C)C)NC(=O)[C@H](C(C)C)N(C)C)[C@H]1Cc1c[nH]c2ccccc12 | > 600 nM |
| COC1=CC(=O)N(C(=O)/C=C/[C@@H](CCc2ccccc2)NC(=O)[C@H](CC(C)C)NC(=O)[C@H](CC(C)C)NC(=O)[C@H](C(C)C)N(C)C)C1Cc1ccc(-c2ccc(C#N)cc2)cc1 (some centres undefined) | > 600 nM |
| COC1=CC(=O)N(C(=O)/C=C/[C@H](C)NC(=O)[C@H](CC2CCCCC2)NC(=O)[C@H](CC(C)C)NC(=O)[C@H](C(C)C)N(C)C)[C@H]1Cc1c[nH]c2ccccc12 | > 600 nM |
| COC1=CC(=O)N(C(=O)/C=C/[C@H](CCc2ccccc2)NC(=O)[C@H](CC(C)C)NC(=O)[C@H](CC(C)C)NC(=O)C2CCN(C)CC2)C1Cc1ccc(-c2ccc(OC)cc2)cc1 (some centres undefined) | > 600 nM |
| COC1=CC(=O)N(C(=O)/C=C/[C@H](C)NC(=O)[C@H](CC(C)C)NC(=O)[C@H](CC2CCCCC2)NC(=O)[C@H](C(C)C)N(C)C)[C@H]1Cc1c[nH]c2ccccc12 | > 600 nM |
| COC1=CC(=O)N(C(=O)/C=C/[C@@H](NC(=O)[C@H](CC(C)C)NC(=O)[C@H](CC2CCCCC2)NC(=O)[C@H](C(C)C)N(C)C)C2CCCCC2)[C@H]1Cc1c[nH]c2ccccc12 | > 600 nM |
| COC1=CC(=O)N(C(=O)/C=C/[C@H](C)NC(=O)[C@H](CC2CCCCC2)NC(=O)[C@H](CC(C)C)NC(=O)C2CCN(C)CC2)[C@H]1Cc1c[nH]c2ccccc12 | > 600 nM |
| COC1=CC(=O)N(C(=O)/C=C/[C@H](CCc2ccccc2)NC(=O)[C@H](CC(C)C)NC(=O)[C@H](CC(C)C)NC(=O)C2CCN(C)CC2)C1Cc1ccc(-c2ccc(C#N)cc2)cc1 (some centres undefined) | > 600 nM |
| COC1=CC(=O)N(C(=O)/C=C/[C@H](C)NC(=O)[C@H](CCc2ccccc2)NC(=O)[C@H](CC2CCCCC2)NC(=O)[C@H](C(C)C)N(C)C)[C@H]1Cc1c[nH]c2ccccc12 | > 600 nM |
| CCCC[C@H]1O[C@@H]1/C=C/C=O | > 600 nM |
| COC1=CC(=O)N(C(=O)/C=C/[C@H](CCc2ccccc2)NC(=O)[C@H](CC(C)C)NC(=O)[C@H](CC(C)C)NC(=O)C2CCN(C)CC2)C1Cc1ccc(-c2ccc3ccccc3c2)cc1 (some centres undefined) | > 600 nM |
| COC1=CC(=O)N(C(=O)/C=C/[C@H](C)NC(=O)[C@H](CC(C)C)NC(=O)[C@H](Cc2ccccc2)NC(=O)[C@H](C(C)C)N(C)C)[C@H]1Cc1c[nH]c2ccccc12 | > 600 nM |
| COC1=CC(=O)N(C(=O)/C=C/[C@H](C)NC(=O)[C@H](CC2CCCCC2)NC(=O)[C@H](CC2CCCCC2)NC(=O)C2CCN(C)CC2)[C@H]1Cc1c[nH]c2ccccc12 | > 600 nM |
| COC1=CC(=O)N(C(=O)/C=C/[C@H](C)NC(=O)[C@H](CC(C)C)NC(=O)[C@H](CC(C)C)NC(=O)C2CCN(C)CC2)[C@H]1Cc1c[nH]c2ccccc12 | > 600 nM |
| COC1=CC(=O)N(C(=O)/C=C/[C@@H](CCc2ccccc2)NC(=O)[C@H](CC(C)C)NC(=O)[C@H](CC(C)C)NC(=O)[C@H](C(C)C)N(C)C)C1Cc1ccc(-c2ccccc2)cc1 (some centres undefined) | > 600 nM |
| COC1=CC(=O)N(C(=O)/C=C/[C@@H](CCc2ccccc2)NC(=O)[C@H](CC(C)C)NC(=O)[C@H](CC(C)C)NC(=O)[C@H](C(C)C)N(C)C)C1Cc1ccc(-c2ccc(OC)cc2)cc1 (some centres undefined) | > 600 nM |
| COC1=CC(=O)N(C(=O)/C=C/[C@H](CCc2ccccc2)NC(=O)[C@H](CC(C)C)NC(=O)[C@H](CC(C)C)NC(=O)[C@H](C(C)C)N(C)C)[C@H]1Cc1c[nH]c2ccccc12 | > 600 nM |
| COC1=CC(=O)N(C(=O)/C=C/[C@H](C)NC(=O)[C@H](CC2CCCCC2)NC(=O)[C@H](CC2CCCCC2)NC(=O)[C@H](C(C)C)N(C)C)[C@H]1Cc1c[nH]c2ccccc12 | > 600 nM |
| COC1=CC(=O)N(C(=O)/C=C/[C@H](CCc2ccccc2)NC(=O)[C@H](CC(C)C)NC(=O)[C@H](CC(C)C)NC(=O)C2CCN(C)CC2)C1Cc1ccc(-c2ccccc2)cc1 (some centres undefined) | > 600 nM |
| COC1=CC(=O)N(C(=O)/C=C/[C@H](CCc2ccccc2)NC(=O)[C@H](CC(C)C)NC(=O)[C@H](CC(C)C)NC(=O)C2CCN(C)CC2)C1Cc1ccc(-c2ccc(C(F)(F)F)cc2)cc1 (some centres undefined) | > 600 nM |
| COC1=CC(=O)N(C(=O)/C=C/[C@H](C)NC(=O)[C@H](CC(C)C)NC(=O)[C@H](CC2CCCCC2)NC(=O)C2CCN(C)CC2)[C@H]1Cc1c[nH]c2ccccc12 | > 600 nM |
| COC1=CC(=O)N(C(=O)/C=C/[C@@H](CCc2ccccc2)NC(=O)[C@H](CC(C)C)NC(=O)[C@H](CC(C)C)NC(=O)[C@H](C(C)C)N(C)C)C1Cc1ccc(-c2ccc(C(F)(F)F)cc2)cc1 (some centres undefined) | > 600 nM |
| COC1=CC(=O)N(C(=O)/C=C/[C@H](C)NC(=O)[C@H](CCc2ccccc2)NC(=O)[C@H](CC(C)C)NC(=O)[C@H](C(C)C)N(C)C)[C@H]1Cc1c[nH]c2ccccc12 | > 600 nM |
| CC[C@H](C)[C@@H](C(=O)O[C@@H](CC(C)C)C(=O)N[C@@H](CC(C)C)C(=O)N[C@@H](C)/C=C/C(=O)N1C(=O)C=C(OC)[C@@H]1C)N(C)C [GALLINAMIDE A] | > 600 nM |
| COC1=CC(=O)N(C(=O)/C=C/[C@@H](CCc2ccccc2)NC(=O)[C@H](CC(C)C)NC(=O)[C@H](CC(C)C)NC(=O)[C@H](C(C)C)N(C)C)C1Cc1ccc(-c2ccc3ccccc3c2)cc1 (some centres undefined) | > 600 nM |

target: Cruzipain (Trypanosoma cruzi, UniProt P25779); assay: Inhibition of Trypanosoma cruzi cruzain using Z-FR-AMC as substrate preincubated for 10 mins followed by substrate addition by fluorimetric analysis; settings: not given
Sequence (P25779 whole entry): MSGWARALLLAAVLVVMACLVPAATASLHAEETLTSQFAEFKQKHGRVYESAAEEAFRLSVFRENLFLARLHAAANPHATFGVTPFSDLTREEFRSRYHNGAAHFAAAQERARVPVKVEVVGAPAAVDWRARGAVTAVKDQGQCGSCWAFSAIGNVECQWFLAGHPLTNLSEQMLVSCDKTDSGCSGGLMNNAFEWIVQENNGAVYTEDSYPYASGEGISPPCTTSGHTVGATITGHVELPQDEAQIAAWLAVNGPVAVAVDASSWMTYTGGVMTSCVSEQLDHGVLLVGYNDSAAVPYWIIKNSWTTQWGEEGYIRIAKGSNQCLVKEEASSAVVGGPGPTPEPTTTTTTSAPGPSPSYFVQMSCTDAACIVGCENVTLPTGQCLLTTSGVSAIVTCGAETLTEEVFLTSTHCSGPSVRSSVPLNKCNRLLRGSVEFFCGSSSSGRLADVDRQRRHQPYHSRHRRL

| Compound | IC50 |
| --- | --- |
| COC1=CC(=O)N(C(=O)/C=C/[C@@H](CCc2ccccc2)NC(=O)[C@H](CC(C)C)NC(=O)[C@H](CC(C)C)NC(=O)[C@H](C(C)C)N(C)C)C1Cc1ccc(-c2ccc(C#N)cc2)cc1 (some centres undefined) | 0.11 nM |
| COC1=CC(=O)N(C(=O)/C=C/[C@H](CCc2ccccc2)NC(=O)[C@H](CC(C)C)NC(=O)[C@H](CC(C)C)NC(=O)C2CCN(C)CC2)C1Cc1ccc(-c2ccc(OC)cc2)cc1 (some centres undefined) | 0.26 nM |
| COC1=CC(=O)N(C(=O)/C=C/[C@H](CCc2ccccc2)NC(=O)[C@H](CC(C)C)NC(=O)[C@H](CC(C)C)NC(=O)C2CCN(C)CC2)C1Cc1ccc(-c2ccc(C#N)cc2)cc1 (some centres undefined) | 0.13 nM |
| CCCC[C@H]1O[C@@H]1/C=C/C=O | 29.7 nM |
| COC1=CC(=O)N(C(=O)/C=C/[C@H](CCc2ccccc2)NC(=O)[C@H](CC(C)C)NC(=O)[C@H](CC(C)C)NC(=O)C2CCN(C)CC2)C1Cc1ccc(-c2ccc3ccccc3c2)cc1 (some centres undefined) | 1.56 nM |
| COC1=CC(=O)N(C(=O)/C=C/[C@@H](CCc2ccccc2)NC(=O)[C@H](CC(C)C)NC(=O)[C@H](CC(C)C)NC(=O)[C@H](C(C)C)N(C)C)C1Cc1ccc(-c2ccccc2)cc1 (some centres undefined) | 0.12 nM |
| COC1=CC(=O)N(C(=O)/C=C/[C@@H](CCc2ccccc2)NC(=O)[C@H](CC(C)C)NC(=O)[C@H](CC(C)C)NC(=O)[C@H](C(C)C)N(C)C)C1Cc1ccc(-c2ccc(OC)cc2)cc1 (some centres undefined) | 0.28 nM |
| COC1=CC(=O)N(C(=O)/C=C/[C@H](CCc2ccccc2)NC(=O)[C@H](CC(C)C)NC(=O)[C@H](CC(C)C)NC(=O)C2CCN(C)CC2)C1Cc1ccc(-c2ccccc2)cc1 (some centres undefined) | 0.4 nM |
| COC1=CC(=O)N(C(=O)/C=C/[C@H](CCc2ccccc2)NC(=O)[C@H](CC(C)C)NC(=O)[C@H](CC(C)C)NC(=O)C2CCN(C)CC2)C1Cc1ccc(-c2ccc(C(F)(F)F)cc2)cc1 (some centres undefined) | 0.79 nM |
| COC1=CC(=O)N(C(=O)/C=C/[C@@H](CCc2ccccc2)NC(=O)[C@H](CC(C)C)NC(=O)[C@H](CC(C)C)NC(=O)[C@H](C(C)C)N(C)C)C1Cc1ccc(-c2ccc(C(F)(F)F)cc2)cc1 (some centres undefined) | 0.68 nM |
| CC[C@H](C)[C@@H](C(=O)O[C@@H](CC(C)C)C(=O)N[C@@H](CC(C)C)C(=O)N[C@@H](C)/C=C/C(=O)N1C(=O)C=C(OC)[C@@H]1C)N(C)C [GALLINAMIDE A] | 1.3 nM |
| COC1=CC(=O)N(C(=O)/C=C/[C@@H](CCc2ccccc2)NC(=O)[C@H](CC(C)C)NC(=O)[C@H](CC(C)C)NC(=O)[C@H](C(C)C)N(C)C)C1Cc1ccc(-c2ccc3ccccc3c2)cc1 (some centres undefined) | 0.69 nM |
